Assay results reported in article PMC6105804, “In Vitro and In Vivo Evaluation of APX001A/APX001 and Other Gwt1 Inhibitors against Cryptococcus” (Antimicrobial Agents and Chemotherapy, 2018).
Converted amounts (≈) assume the structure as drawn.

Assays:
[1] = tested on: C. albicans 90028; test: Broth microdilution susceptibility testing (CLSI M27-A3); assay type: cell-based, Candida albicans; details: Candida albicans, 90028, read-out: MIC, C. albicans 90028
Source text: (§1) C. neoformans strains H99, DUMC 118.00, and DUMC 158.03 and C. gattii strains R272 and RSA-MW-3515 were obtained from Duke University. C. albicans 90028, A. fumigatus MYA3626, C. neoformans 14116, C. neoformans 76484, and the pathogenic Cryptococcus reference strains panel (ATCC MP-11) were obtained from the American Type Culture Collection (ATCC; Manassas, VA, USA). The ATCC MP-11 panel consists of strains representing eight molecular types and three subtypes of C. neoformans and C. gattii.
(§2) To establish the antimicrobial activity of the APX001A analogs, broth microdilution susceptibility testing was performed according to Clinical and Laboratory Standards Institute (CLSI) guidelines M27-A3 ([47]) for yeasts and M38-A2 for molds ([48]). APX001A and analogs were first diluted in DMSO to obtain intermediate dilutions. These were further diluted in microtiter plates to obtain a final concentration of 2 to 0.002 μg/ml. One microliter of DMSO was added to the no-drug control wells. The solutions were mixed on a plate shaker for 10 min, and the plates were incubated at 35°C for 40 to 48 h (C. albicans, A. fumigatus) and 72 h (C. neoformans). The minimum concentration that led to a 50% reduction in fungal growth compared to that for the control (determined with the aid of a reading mirror) was determined as the MIC for C. albicans and C. neoformans. The minimum concentration that led to the shortening of hyphae compared to the hyphal growth in DMSO control wells was determined as the minimum effective concentration (MEC) for A. fumigatus (as read for the echinocandins). The use of the MIC and MEC endpoints for APX001A (formerly E1210) against yeasts and molds, respectively, has been described previously ([19][–][21]). For the cryptococcal synergy studies, APX001A and APX2020 MIC values were read at 50% inhibition.

[2] = tested on: A. fumigatus MYA3626; test: Broth microdilution susceptibility testing for molds (CLSI M38-A2); assay type: cell-based; details: Aspergillus fumigatus, MYA3626, read-out: MIC or MEC for A. fumigatus MYA3626
Source text: as §1, §2

[3] = tested on: C. neoformans; parameters: method as in PMID 15078612; details: U.S. isolates; cited from earlier work

Row | Compound | MIC [1] | MIC [2] | MIC90 [3]
1 | CC[C@H](C)C[C@H](C)CCCCCCCCC(=O)N[C@H]1C[C@@H](O)[C@@H](NCCN)NC(=O)[C@@H]2[C@@H](O)CCN2C(=O)[C@H]([C@H](O)CCN)NC(=O)[C@H]([C@H](O)[C@@H](O)c2ccc(O)cc2)NC(=O)[C@@H]2C[C@@H](O)CN2C(=O)[C@H]([C@@H](C)O)NC1=O [CAS, caspofungin, reference compound] | 0.5 µg/mL | 0.25 µg/mL | 
2 | Nc1[nH]c(=O)ncc1F [flucytosine] |  |  | 8 µg/mL (≈ 62 µM)
3 | CCC(C)n1ncn(-c2ccc(N3CCN(c4ccc(OCC5COC(Cn6cncn6)(c6ccc(Cl)cc6Cl)O5)cc4)CC3)cc2)c1=O (centres unmarked) [itraconazole] |  |  | 0.125 µg/mL (≈ 0.177 µM)
4 | CC(=O)N1CCN(c2ccc(OCC3COC(Cn4ccnc4)(c4ccc(Cl)cc4Cl)O3)cc2)CC1 (centres unmarked) [ketoconazole] |  |  | 0.06 µg/mL (≈ 0.113 µM)
